From US10561612B2, “Powdered formulations of cromolyn sodium and ibuprofen” (AZTherapies, Inc., priority 2017, dated 2020)
Read-outs that look alike come from different tables or passages of the source. Each block holds one molecule with its values, some of them ahead of it.

Columns and labels:
Assay type in all cases: physicochemical
[1] = Moisture content by simultaneous thermal analyzer (STA); details: for % Moisture content / Enthalpy change: by STA
Description: (§1) Following micronization, Particle Size Distribution (PSD) analysis was performed by wet dispersion. […] FIGS. 8A and 8B illustrate the SEM imagery of micronized ibuprofen at a 10 μm scale for Batch 1 and Batch 2, respectively. FIGS. 9A and 9B illustrate the SEM imagery of micronized ibuprofen at a 2 μm scale for Batch 1 and Batch 2, respectively. FIGS. 10A and 10B illustrate the PXRD of micronized ibuprofen for Batch 1 and Batch 2, respectively. Table 7 contains the data for moisture content of micronized ibuprofen as determined by simultaneous thermal analyzer (STA), which tests both by DTA (Differential Temperature Analysis) and TG (Thermogravimetry). FIGS. 11A, 11B, and 11C illustrate the hygroscopicity as determined GVS for coarse ibuprofen (FIG. 11A), Batch 1 (FIG. 11B), and Batch 2 (FIG. 11C).

[2] = Stability study under accelerated degradation conditions, related substances; details: 40° C. and 75% relative humidity
Description: A stability study was performed to determine the compatibility of the combined APIs under accelerated degradation conditions. Separate control samples of micronized cromolyn sodium (Sample A) and micronized ibuprofen (Sample B) were included in the study to be used as a comparator to the blend of Cromolyn/Ibuprofen (Sample C). The study was performed at 40° C. and 75% relative humidity. Measurements were taken at time 0, 1 month, 2 months, and 3 months.

[3] = Particle size determination (PSD) of coarse ibuprofen; details: for D10 / D50 / D90: Effect of Dispersant
From the text: (§2) Coarse ibuprofen was characterized using PSD, PXRD, and GVS. […]
The average particle size determinations are illustrated in FIG. 5. The parameters and results were as follows: concentration 0.0406% Vol; span 1.493; uniformity 0.459; specific surface area 0.239 m^2/g; surface weighted mean […] 25.136 μm; and vol. weighted mean D[4,3] 62.020 μm.

[4] = Gravimetric vapor sorption (GVS); details: for weight gain upon exposure to moisture (moisture adsorbed on the surface): adsorption-desorption isotherm
Description: (§3) Ibuprofen was characterized to determine the parameters necessary to administer a therapeutically effective amount using an inhalation delivery system. The methodology included particle size determination (PSD); powdered x-ray crystallization diffraction (PXRD); and gravimetric vapor sorption (GVS).
as §1

[5] = Powdered x-ray diffraction (PXRD)
From the text: as §3, with “(GVS). The methods determined that coarse ibuprofen was crystalline and non-hygroscopic. The results are summarized in Example 3.” for “(GVS).”
as §2

[6] = Solubility and dispersibility seen in PSD by wet dispersion
From the text: The micronization may be performed on coarse ibuprofen using an air-jet mill or similar apparatus, such as a grinder or a mill. Other methods to micronize the ibuprofen include milling, bashing, cutting, or crushing. For example, two batches were micronized with an air-jet mill using a feed gas pressure of about 45 psi and a grinding pressure of about 45 psi. One batch was micronized a second time under the same conditions. Optionally, the ibuprofen may be micronized more than once. After micronization, particle size distribution was performed on the micronized ibuprofen by wet dispersion.
as §1

[7] = average particle size determination, FIG. 5

Structure (SMILES): CC(C)Cc1ccc(C(C)C(=O)O)cc1 (stereo not shown) [Batch 1, ibuprofen]
% Moisture content [1]: 1.19%
Enthalpy change [1]: 120.5 J/g

Structure (SMILES): CC(C)Cc1ccc(C(C)C(=O)O)cc1 (stereo not shown) [Batch 2, ibuprofen]
% Moisture content [1]: 1.14%
Enthalpy change [1]: 94.4 J/g

Further lines, with some results ahead:

Individual Related Substances ≥ 0.5%, cromolyn sodium ([2]; 1 month): 0.11%
Total Impurities, cromolyn sodium ([2]; 1 month): 0.1%
Individual Related Substances ≥ 0.5%, cromolyn sodium ([2]; 2 months): 0.11%
Total Impurities, cromolyn sodium ([2]; 2 months): 0.1%
Individual Related Substances ≥ 0.5%, cromolyn sodium ([2]; 3 months): 0.11%
Total Impurities, cromolyn sodium ([2]; 3 months): 0.1%
Individual Related Substances ≥ 0.5%, cromolyn sodium ([2]; Initial T = 0): 0.11%
Total Impurities, cromolyn sodium ([2]; Initial T = 0): 0.1%
Structure (SMILES): O=C(O)c1cc(=O)c2c(OCC(O)COc3cccc4oc(C(=O)O)cc(=O)c34)cccc2o1 [Sample A, cromolyn sodium]

D10 ([3]; T (Day) 0): 22.586 μm
D50 ([3]; T (Day) 0): 57.693 μm
D90 ([3]; T (Day) 0): 108.743 μm
D10 ([3]; T (Day) 1): 22.401 μm
D50 ([3]; T (Day) 1): 57.611 μm
D90 ([3]; T (Day) 1): 108.724 μm
span [3, 7]: 1.493
specific surface area [3, 7]: 0.239 m^2/g
surface weighted mean D[2,3] [3, 7]: 25.136 μm
uniformity [3, 7]: 0.459
vol. weighted mean D[4,3] [3, 7]: 62.020 μm
hygroscopicity [4]: non-hygroscopic
weight gain upon exposure to moisture (moisture adsorbed on the surface) [4]: < 0.2%
weight gain upon exposure to moisture (moisture adsorbed on the surface) ([4]; listed as Ibuprofen): < 0.2%
weight gain upon exposure to moisture (moisture adsorbed on the surface) ([4]; listed as ibuprofen): < 0.2%
hygroscopicity ([4]; listed as Coarse ibuprofen): non-hydroscopic
hygroscopicity ([4]; listed as ibuprofen): non-hydroscopic
crystallinity [5]: crystalline
% Moisture content [1]: 0.20%
Enthalpy change [1]: 131.0 J/g
Inference (crystalline or amorphous) ([1]; from the enthalpy change): Crystalline
Structure (SMILES): CC(C)Cc1ccc(C(C)C(=O)O)cc1 (stereo not shown) [coarse ibuprofen, ibuprofen]

Individual Related Substances ≥ 0.5%, RRT 0.93, ibuprofen ([2]; 1 month): 0.07%
Individual Related Substances ≥ 0.5%, RRT 1.11, ibuprofen ([2]; 1 month): 0.05%
Total Impurities, ibuprofen ([2]; 1 month): 0.1%
Individual Related Substances ≥ 0.5%, RRT 0.93, ibuprofen ([2]; 2 months): 0.07%
Individual Related Substances ≥ 0.5%, RRT 1.11, ibuprofen ([2]; 2 months): <LOQ
Total Impurities, ibuprofen ([2]; 2 months): 0.1%
Individual Related Substances ≥ 0.5%, RRT 0.93, ibuprofen ([2]; 3 months): 0.07%
Individual Related Substances ≥ 0.5%, RRT 1.11, ibuprofen ([2]; 3 months): <LOQ
Total Impurities, ibuprofen ([2]; 3 months): 0.1%
Individual Related Substances ≥ 0.5%, RRT 0.93, ibuprofen ([2]; Initial T = 0): 0.07%
Total Impurities, ibuprofen ([2]; Initial T = 0): 0.1%
weight gain upon exposure to moisture (moisture adsorbed on the surface) ([4]; listed as Micronize ibuprofen): ~3%
weight gain upon exposure to moisture (moisture adsorbed on the surface) ([4]; listed as Micronized ibuprofen): ~3%
dispersibility in water [6]: not dispersible in water
solubility in organic solvents [6]: highly soluble in organic solvents
Structure (SMILES): CC(C)Cc1ccc(C(C)C(=O)O)cc1 (stereo not shown) [micronized ibuprofen, ibuprofen]
solubility in surfactant containing aqueous media [6]: soluble in different surfactants containing aqueous media even at low concentrations of the surfactant
